Results published in the NIST ThermoML archive (doi:10.1021/je9003806).

Test: excess molar enthalpy (molar enthalpy of mixing); xn = mol fraction of the nth substance listed
Settings: 101.3 kPa, Liquid, Flow calorimetry

CCOC(=O)CC(=O)OCC [diethyl 1,3-propanedioate] + CCO
excess molar enthalpy [kcal/mol]
Settings | 288.2 K | 298.2 K | 313.2 K | 328.2 K
x1 = 0.0501 | 0.0949 | 0.101 | 0.114 | 0.119
x1 = 0.1004 | 0.168 | 0.185 | 0.205 | 0.222
x1 = 0.1491 | 0.233 | 0.247 | 0.279 | 0.304
x1 = 0.1995 | 0.282 | 0.301 | 0.337 | 0.366
x1 = 0.2507 | 0.318 | 0.346 | 0.387 | 0.42
x1 = 0.2985 | 0.348 | 0.379 | 0.425 | 0.46
x1 = 0.3517 | 0.374 | 0.407 | 0.454 | 0.491
x1 = 0.399 | 0.39 | 0.425 | 0.473 | 0.51
x1 = 0.4509 | 0.401 | 0.435 | 0.486 | 0.522
x1 = 0.4985 | 0.406 | 0.442 | 0.489 | 0.527
x1 = 0.5503 | 0.404 | 0.437 | 0.485 | 0.517
x1 = 0.6013 | 0.395 | 0.428 | 0.469 | 0.499
x1 = 0.6504 | 0.38 | 0.41 | 0.448 | 0.477
x1 = 0.6967 | 0.359 | 0.386 | 0.422 | 0.442
x1 = 0.7465 | 0.328 | 0.352 | 0.38 | 0.396
x1 = 0.8002 | 0.284 | 0.302 | 0.322 | 0.333
x1 = 0.8497 | 0.232 | 0.242 | 0.259 | 0.269
x1 = 0.9027 | 0.164 | 0.172 | 0.179 | 0.186
x1 = 0.9498 | 0.0896 | 0.0946 | 0.105 | 0.101
